Measurements reported in article PMC5328627 (Journal of natural products, 2009).

What was measured:
Format in all cases: cell-based, human
UO-31 = details: renal cancer cell line; single high dose 10^−5 M
IGROV1 = details: ovarian cancer cell line; single high dose 10^−5 M
NCI-H522 = details: non-small cell lung cancer cell line; single high dose 10^−5 M

## cyclo(ATPFVPP) (SMILES CC(C)[C@@H]1NC(=O)[C@H](Cc2ccccc2)NC(=O)[C@@H]2CCCN2C(=O)[C@H]([C@@H](C)O)NC(=O)[C@H](C)NC(=O)[C@@H]2CCCN2C(=O)[C@@H]2CCCN2C1=O) [compound 2, euryjanicin B]
UO-31
  Percent growth of UO-31: 76.3%
IGROV1
  Percent growth of IGROV1: 91.3%
NCI-H522
  Percent growth of NCI-H522: 83.9%

## cyclo(FSPIFPI) (SMILES CC[C@H](C)[C@@H]1NC(=O)[C@@H]2CCCN2C(=O)[C@H](CO)NC(=O)[C@H](Cc2ccccc2)NC(=O)[C@H]([C@@H](C)CC)NC(=O)[C@@H]2CCCN2C(=O)[C@H](Cc2ccccc2)NC1=O) [compound 4, euryjanicin D]
UO-31
  Percent growth of UO-31: 82.7%
IGROV1
  Percent growth of IGROV1: 100%
NCI-H522
  Percent growth of NCI-H522: 94.6%

## cyclo(SIPLFPI) (SMILES CC[C@H](C)[C@@H]1NC(=O)[C@@H]2CCCN2C(=O)[C@H](Cc2ccccc2)NC(=O)[C@H](CC(C)C)NC(=O)[C@@H]2CCCN2C(=O)[C@H]([C@@H](C)CC)NC(=O)[C@H](CO)NC1=O) [compound 3, euryjanicin C]
UO-31
  Percent growth of UO-31: 83.4%
IGROV1
  Percent growth of IGROV1: 100%
NCI-H522
  Percent growth of NCI-H522: 95.1%

## dominicin [compound 5]
UO-31
  Percent growth of UO-31: 32.8%
IGROV1
  Percent growth of IGROV1: 100%
NCI-H522
  Percent growth of NCI-H522: 100%

## euryjanicin A [compound 1]
UO-31
  Percent growth of UO-31: 73.6%
IGROV1
  Percent growth of IGROV1: 82.6%
NCI-H522
  Percent growth of NCI-H522: 72.2%
